# Source: PubChem BioAssay AID1996
# Settings: buffer; pH 7.4; 200.0 µM
row,SMILES,solubility kinetic
1,Cc1ccccc1CN(C)C(C)C(=O)Nc1ccccc1F (stereo not given),0.0081 mg/mL
2,CCn1c(CNC(=O)C2CCCCC2)cc2ccccc21,0.0004 mg/mL
3,COc1cccc(CNC(=O)CCCNC(=O)c2ccc(Cl)cc2)c1,0.0378 mg/mL
4,Cc1nn(C)cc1S(=O)(=O)Nc1ncccn1,> 0.038 mg/mL
5,NC(=O)C1CCN(C(=O)CCC(=O)c2cccs2)CC1,> 0.0442 mg/mL
6,CC1CC(C)CN(C(=O)Nc2ccccc2F)C1 (stereo not given),0.015 mg/mL
7,O=C(Cc1ncc(C(F)(F)F)cc1Cl)NC1CC1,> 0.0418 mg/mL
8,CSc1cccc(NC(=O)C(=O)NCc2ccccc2)c1,< 0.0003 mg/mL
9,O=C1CC(C(=O)N2CCN(c3ccccc3)CC2)CN1Cc1ccccc1 (stereo not given),> 0.0545 mg/mL
10,O=C(CCCCCCC(=O)NCc1ccccc1)NCc1ccccc1,0.0014 mg/mL
11,Cc1ccnc(NC(=O)Cc2ccc(-c3ccccc3)cc2)c1,0.0043 mg/mL
12,CCOc1ccc(N2CC(C(=O)NC3CCCCCC3)CC2=O)cc1 (stereo not given),0.0152 mg/mL
13,CCCN(CCC)S(=O)(=O)c1nc2nc(C)cc(C)n2n1,> 0.0467 mg/mL
14,Cc1cccc(Nc2nc(-c3ccc(F)cc3)cs2)n1,< 0.0002 mg/mL
15,Cn1c(=O)c2c(nc(NC3CCCC3)n2C)n(C)c1=O,> 0.0416 mg/mL
16,Cc1cc[n+](CC(=O)Nc2ccccc2)cc1.[Br-],0.0454 mg/mL
17,COc1ccc(N2CCOCC2)c(NC(=O)c2cccc3ccccc23)c1,0.006 mg/mL
18,CN(Cc1cccnc1)C(=O)CCCc1c[nH]c2ccccc12,0.0445 mg/mL
19,O=C(C(=O)N1CCCCC1)c1c(-c2ccccc2)[nH]c2ccccc12,> 0.0499 mg/mL
20,CC(=O)c1ccc(N2CCN(c3ncccn3)CC2)cc1,0.0077 mg/mL
21,COc1ccccc1CNC(=O)CN1C(=O)NC2(CCCCCCC2)C1=O,> 0.056 mg/mL
22,CC(C)N1CC(C(=O)Nc2cccc([N+](=O)[O-])c2)CC1=O (stereo not given),> 0.0437 mg/mL
23,O=C(NC1CCN(c2ncccn2)CC1)c1cccc(F)c1,0.0328 mg/mL
24,S=C(Nc1ccc(Oc2ccccc2)cc1)N1CCOCC1,0.0428 mg/mL
25,Oc1ccc(-c2csc(Nc3ccccn3)n2)cc1,0.0053 mg/mL
26,Cc1ccc2nsnc2c1S(=O)(=O)Nc1ccccc1C(=O)O,> 0.0524 mg/mL
27,COc1ccc(Cl)cc1NCCC(O)c1ccc(F)cc1 (stereo not given),0.0247 mg/mL

row,SMILES,solubility kinetic
1,O=C(Nc1cccc(S(=O)(=O)N2CCOCC2)c1)C12CC3CC(CC(C3)C1)C2,0.0022 mg/mL
2,CC(NC(=O)COC(=O)c1c[nH]c2ccccc12)c1ccccc1 (stereo not given),0.0462 mg/mL
3,Br.CNc1nc2ccccc2n1CC(=O)c1ccccc1,> 0.0519 mg/mL
4,CN(Cc1ccccc1)C(=O)CN1C(=O)NC2(CCCC2)C1=O,> 0.0473 mg/mL
5,O=C(c1ccc2ccccc2c1)N1CCCCC1,> 0.0359 mg/mL
6,S=C1Cc2ccccc2C(c2ccc(Cl)cc2)N1 (stereo not given),0.0049 mg/mL
7,CC(=O)c1ccc(NC(=O)C(C)NCc2ccccc2Cl)cc1 (stereo not given),0.0383 mg/mL
8,CC(=O)Nc1ccc(NC(=S)NC(=O)C2CC2)cc1,0.0322 mg/mL
9,CC(=O)c1cccc(NC(=O)N2CCCCCC2)c1,> 0.0391 mg/mL
10,COc1ccc(NC(=O)C(Br)C(C)C)cc1 (stereo not given),0.0407 mg/mL
11,O=C(Cc1c(Cl)cccc1Cl)OCC(=O)N1CCOCC1,> 0.0498 mg/mL
12,COCCCNC(=O)c1ccc(NC(C)=O)cc1,> 0.0375 mg/mL
13,CCOc1cc(N2CCOCC2)c(OCC)cc1NC(=O)COC(=O)c1c(CC)noc1C,0.007 mg/mL
14,O=C(Nc1ccccc1-c1ccccc1)c1ccccc1Br,0.0337 mg/mL
15,O=C(CN1CCCCCC1)Nc1ccc(Cl)cc1F,0.0281 mg/mL
16,COc1ccc(CN2CCCCCC2)cc1OC,0.0216 mg/mL
17,O=C(Oc1ccccc1)N1CCCC1,0.0248 mg/mL
18,Cc1ccc(C(=O)CCC(=O)NCc2ccc(Cl)cc2)cc1,0.0097 mg/mL
19,CC(C)(C)NC(=O)COC(=O)c1ccc(Cl)cc1O,0.0073 mg/mL
20,CCCn1nc(C(=O)N2CCN(c3ccccn3)CC2)c2ccccc2c1=O,> 0.0566 mg/mL
21,Oc1ccc(Cl)cc1CNc1cnc2ccccc2c1,0.0012 mg/mL
22,N#CC(C#N)=C/C=C(\Nc1ccc(Cl)cc1)c1ccc(Cl)cc1,> 0.051 mg/mL
23,CC(=O)c1ccccc1NC(=O)CCN1C(=O)C2CCCCC2C1=O (stereo not given),> 0.0514 mg/mL
24,S=C(NCc1ccc2c(c1)OCO2)NC1CC1,> 0.0375 mg/mL
25,CCOC(=O)N1CCN(C(=O)c2ccc(OCC)cc2)CC1,> 0.046 mg/mL
26,Cc1cccc(NC(=O)CSc2nncn2-c2ccccn2)c1,> 0.0488 mg/mL
27,COc1cccc(C(=O)NCCSCc2ccccc2Cl)c1,0.016 mg/mL

row,SMILES,solubility kinetic
1,O=C(OCC(=O)N1CCN(C(=O)c2ccco2)CC1)c1cc(F)c(F)cc1Cl,> 0.0619 mg/mL
2,CC(=O)c1ccccc1OCC(O)Cn1ccnc1 (stereo not given),0.0382 mg/mL
3,CCCc1[nH]n(-c2nc3ccccc3s2)c(=O)c1C=NCCCOC,> 0.0538 mg/mL
4,C=CCOc1ccccc1CNc1ccc2[nH]c(=O)[nH]c2c1,> 0.0443 mg/mL
5,CC(C)(CNC(=O)c1ccc(Br)o1)N1CCOCC1,0.0428 mg/mL
6,Clc1ccc(C(CCN2CCCC2)Cc2ccccc2)cc1 (stereo not given),0.0298 mg/mL
7,CCn1c(CCNC(=O)c2ccco2)nc2ccccc21,0.0405 mg/mL
8,Cc1ccc(NS(=O)(=O)c2ccc(C(=O)NCCN3CCOCC3)cc2)cc1.Cl,> 0.066 mg/mL
9,COCCNC(=O)C(=O)Nc1cc2c3c(c1)CCC(=O)N3CCC2,0.0464 mg/mL
10,COc1ccc(OC)c(C(C)NC(=O)C23CC4CC(CC(C4)C2)C3)c1 (stereo not given),0.0008 mg/mL
11,CC1CCN(C(=O)COC(=O)c2cn(C)c3ccccc23)CC1,> 0.0472 mg/mL
12,COc1cccc(NC(=S)N2CCCN(Cc3ccc(F)cc3)C2)c1,0.0498 mg/mL
13,CCN(CC(=O)NCCC1=CCCCC1)S(=O)(=O)c1ccccc1,> 0.0526 mg/mL
14,CC(C)(C)C1CCc2c(sc3nc(SCC(=O)O)nc(N)c23)C1 (stereo not given),0.0394 mg/mL
15,S=C(NCc1cccnc1)NCc1cccnc1,0.0374 mg/mL
16,O=C(COC(=O)CNC(=O)C1CCCCC1)Nc1ccc(F)c([N+](=O)[O-])c1,> 0.0572 mg/mL
17,COc1ccc(NC(=S)N2CCN(Cc3ccc(C)cc3)CC2)cc1,0.0004 mg/mL
18,COc1ccc(N2CCN(C(=O)NC(=O)c3ccccc3)CC2)cc1,0.0387 mg/mL
19,CC(=O)Nc1ccc(NC(=S)NC(=O)c2ccc(-c3ccccc3)cc2)cc1,0.0009 mg/mL
20,CCCC(=O)N1CCN(Cc2nc3cc([N+](=O)[O-])ccc3n2C)CC1,> 0.0518 mg/mL
21,Cc1cc(N2CCN(C(=O)c3cccs3)CC2)c(F)cc1[N+](=O)[O-],0.0015 mg/mL
22,CCc1nc(C)cn1S(=O)(=O)c1ccc(Br)cc1,> 0.0494 mg/mL
23,Nc1ccc2nc(SCc3ccccc3F)sc2c1,0.016 mg/mL
24,CN1CCCC(OC(=O)c2ccccc2Br)C1.Cl (stereo not given),> 0.0502 mg/mL
25,COCCNC(=S)N1CCC(Cc2ccccc2)CC1,> 0.0439 mg/mL

# The next lines start with the values.
row,solubility kinetic,SMILES
1,> 0.0639 mg/mL,Cn1c(=O)c(C(=O)c2ccc(S(C)(=O)=O)c(Cl)c2Cl)c(O)c2ccccc21
2,< 0.0006 mg/mL,O=c1oc(-c2ccc(Br)cc2)nc2ccccc12
3,0.0527 mg/mL,Cc1ccc(S(=O)(=O)N2CCCCC2)cc1NC(=O)CSc1nc(N)cc(=O)[nH]1
4,> 0.0453 mg/mL,Cn1c(=O)c2c(nc(Oc3cccc(O)c3)n2C)n(C)c1=O
5,0.0116 mg/mL,Cn1c(N)c(C(=O)COC(=O)/C=C/c2ccccc2)c(=O)n(C)c1=O
6,> 0.0298 mg/mL,CN(C)NC(=O)c1cccc(Cl)c1
7,0.0181 mg/mL,Cc1cc(C)cc(CN2C(=O)NC3(CCCCCC3)C2=O)c1
8,0.0095 mg/mL,Cc1c(C(=O)N2CCN(c3ncccn3)CC2)oc2ccc(F)cc12
9,0.0015 mg/mL,Cc1ccc(CN(Cc2ccccc2)C(=S)Nc2ccccc2C)o1
10,> 0.0415 mg/mL,Cc1ccc(S(=O)(=O)NCc2cccnc2)c(C)c1
11,> 0.0485 mg/mL,Cc1ccc(CN2CC(C(=O)Nc3cccc(C)n3)CC2=O)cc1 (stereo not given)
12,0.0328 mg/mL,CN(C)CC/C=C1/c2cc(F)ccc2Sc2ccc(Cl)cc21.Cl
13,> 0.0497 mg/mL,CCOc1cccc2cc(C(=O)N3CC(C)OC(C)C3)c(=O)oc12 (stereo not given)
14,0.0233 mg/mL,Cc1ccc(NC(=O)COC(=O)c2ccco2)cc1C
15,< 0.0004 mg/mL,CCCCc1nc2cc(Cl)ccc2o1
16,> 0.0474 mg/mL,N#Cc1ccccc1S(=O)(=O)Nc1ccc2c(c1)OCCO2
17,0.0113 mg/mL,CCOc1ccc(C(=O)NCc2ccc3c(c2)OCO3)cc1
18,< 0.0004 mg/mL,O=C(CN1CCOCC1)Nc1scc2c1c(=O)oc1ccccc12
19,< 0.0002 mg/mL,N/C(=N\c1nc2ccccc2o1)NC(=O)c1cccc(Br)c1
20,< 0.0002 mg/mL,Cc1cccc(NC(=O)c2cc3cc([N+](=O)[O-])ccc3s2)n1
21,0.0122 mg/mL,COc1ccc(C2NC(c3ccc(OC)cc3)C(C)C(=O)C2C)cc1 (stereo not given)

row,solubility kinetic,SMILES
1,0.0008 mg/mL,Cc1ccc2sc(N(CCN(C)C)C(=O)c3ccc4ccccc4c3)nc2c1C.Cl
2,0.0192 mg/mL,CC1Nc2ccc(C(=O)NC3CCCCC3)cc2NC1=O (stereo not given)
3,> 0.0324 mg/mL,Cc1cccc(C)c1NC1=NCCCCC1
4,0.0381 mg/mL,COc1ccc(OC)c(S(=O)(=O)N2CCNCC2)c1
5,> 0.0418 mg/mL,CCCCOc1cc(CC2CNC(=O)N2)ccc1OC (stereo not given)
6,0.0005 mg/mL,Cc1cccc2nc3c(nc12)-c1ccccc1C3=O
7,> 0.0402 mg/mL,COc1cc(/C=C2/C(=O)ON=C2C)cc(Cl)c1O
8,0.001 mg/mL,COC(=O)C1=C(C)N(c2ccc(OC)cc2)C(C)=C(C(=O)OC)C1c1ccccc1
9,< 0.0007 mg/mL,CC(=O)c1ccccc1NC(=O)COC(=O)/C=C/c1ccc(C)o1
10,0.0309 mg/mL,Cc1ccc(CCC(=O)Nc2ccc([N+](=O)[O-])cc2)o1
11,0.0365 mg/mL,CC1CN(C(=O)/C=C/c2ccccc2Cl)CC(C)O1 (stereo not given)
12,> 0.0395 mg/mL,Cc1cccc(C)c1NC(=O)CNCC(=O)N(C)C
13,0.0028 mg/mL,COc1ccc(NC(=O)O/N=C/c2ccc(N(C)C)cc2)cc1
14,> 0.0426 mg/mL,Cc1ccc(C2C(C#N)=C(N)Oc3cc(C)oc(=O)c32)o1 (stereo not given)
15,> 0.0526 mg/mL,Cc1cccc(N2N=C(C(=O)OCC(=O)c3ccccc3)CCC2=O)c1
16,0.0244 mg/mL,CC1=NOC(=O)/C1=C\c1ccccc1
17,> 0.0471 mg/mL,Cc1nc2ccccc2c(=O)n1NC(=O)c1cccc(Cl)c1
18,0.0368 mg/mL,COc1ccc(C=O)cc1CN1C(=O)c2ccccc2C1=O
19,0.0053 mg/mL,COC(OC)C1(C)C(C#N)=C(N)Oc2c1c(=O)oc1ccccc21 (stereo not given)
20,0.0006 mg/mL,COc1ccc(OC)c(N/C(=N/c2nc(C)cc(C)n2)NC(C)=O)c1
